The record followed here is patent US12582681B2, “Fermented milk product for administration in canids such as dogs, and uses thereof” (priority 2019, dated 2026).

Usually MIC stands for the lowest concentration found to suppress growth.

Values after ≈ are worked out from the molar mass of the structure shown. Read-outs that look alike come from different tables or passages of the source.

Experiment [1] relates to Lactobacillus reuteri CECT 9859. The experiment can be described thus: Broth microdilution MIC (MRS and LSM medium). As to Category (LSM): key: S, susceptible; R, resistant. As to Category (MRS): key: S, susceptible; R, resistant. Format: cell-based. The settings on record: for Category (LSM) / Category (MRS): against EFSA (2018) breakpoints. For orientation: Broth dilution looks for growth in wells or tubes with falling amounts of substance.
The subject of a further experiment is S. aureus ATCC25923. The experiment can be described thus: Broth microdilution MIC, control strain. As to Category: key: S, susceptible; R, resistant. Format: cell-based. The settings on record: for Category: against CLSI values.
Setting [2] is: Limosilactobacillus reuteri, CECT9859, 24 h, LSM medium, anaerobic, 37° C., 24 h, read-out: MIC.
Where [3] appears, read: Limosilactobacillus reuteri, CECT9859, 24 h, MRS medium, anaerobic, 37° C., 24 h, read-out: MIC.
Where [4] appears, read: Staphylococcus aureus, ATCC25923, MH medium, control strain, read-out: MIC.
[5] abbreviates: Staphylococcus aureus, ATCC25923.

For `CC1(C)S[C@@H]2[C@H](NC(=O)[C@H](N)c3ccccc3)C(=O)N2[C@H]1C(=O)O` [Ampicillin], the “Category (LSM)” value in experiment [1] (LSM medium) was “S”. For the same compound, the results for the minimum inhibitory concentration (MIC) (in experiment [1] (setting [2]); in experiment [1] (setting [3]); in the experiment with S. aureus ATCC25923 (setting [4])) were 0.25 µg/mL (≈ 0.715 µM), 0.25 µg/mL (≈ 0.715 µM) and 0.125 µg/mL (≈ 0.358 µM), respectively. Moreover, the “Category (MRS)” value in experiment [1] (MRS medium) is given as “S”. Further, the Category entry in the experiment on S. aureus ATCC25923 (MH medium) is on record as “S”.

On to `O=C(N[C@H](CO)[C@H](O)c1ccc([N+](=O)[O-])cc1)C(Cl)Cl` [Chloramphenicol], for which the “Category (LSM)” value in experiment [1] (LSM medium) is recorded as “S”. Further, the MIC (in experiment [1] (setting [2]); in experiment [1] (setting [3]); with S. aureus ATCC25923 (setting [4])) was 4 µg/mL (≈ 12.4 µM) each time. The “Category (MRS)” value in experiment [1] (MRS medium) is on record as “S”. Moreover, the Category result in the experiment on S. aureus ATCC25923 (MH medium) is recorded as “S”.

On to `CCC[C@@H]1C[C@@H](C(=O)N[C@@H]([C@H]2O[C@H](SC)[C@H](O)[C@@H](O)[C@H]2O)[C@H](C)Cl)N(C)C1` [Clindamycin], for which the “Category (LSM)” value in experiment [1] (LSM medium) is given as “S”. Besides, the figures for the MIC (in experiment [1] (setting [2]); in experiment [1] (setting [3]); against S. aureus ATCC25923 (setting [5])) were 0.25 µg/mL (≈ 0.588 µM), 0.25 µg/mL (≈ 0.588 µM) and 0.125 µg/mL (≈ 0.294 µM), respectively. In addition, the “Category (MRS)” value in experiment [1] (MRS medium) is given as “S”. In the experiment with S. aureus ATCC25923 (MH medium), the Category entry is given as “S”.

In the case of `CC[C@H]1OC(=O)[C@H](C)[C@@H](O[C@H]2C[C@@](C)(OC)[C@@H](O)[C@H](C)O2)[C@H](C)[C@@H](O[C@@H]2O[C@H](C)C[C@H](N(C)C)[C@H]2O)[C@](C)(O)C[C@@H](C)C(=O)[C@H](C)[C@@H](O)[C@]1(C)O` [Erythromycin], in experiment [1] (LSM medium), the “Category (LSM)” value was “S”. Further, the MIC in experiment [1] (Limosilactobacillus reuteri, CECT9859, 24 h) is 0.125 µg/mL (≈ 0.17 µM); in experiment [1] (setting [3]), 0.25 µg/mL (≈ 0.341 µM); in the experiment with S. aureus ATCC25923 (setting [5]), 0.125 µg/mL (≈ 0.17 µM). For the same compound, the “Category (MRS)” value in experiment [1] (MRS medium) was “S”. In the experiment with S. aureus ATCC25923 (MH medium), the Category result was “S”.

Regarding `NC[C@H]1O[C@H](O[C@H]2[C@H](O)[C@@H](O[C@H]3O[C@H](CO)[C@@H](O)[C@H](N)[C@H]3O)[C@H](N)C[C@@H]2N)[C@H](O)[C@@H](O)[C@@H]1O` [Kanamycin], the “Category (LSM)” value in experiment [1] (LSM medium) was “S”. Moreover, the minimal inhibitory concentration (MIC) in experiment [1] (setting [2]) amounted to 64 µg/mL (≈ 132 µM); in experiment [1] (setting [3]), 512 µg/mL (≈ 1060 µM); in the experiment on S. aureus ATCC25923 (setting [4]), 2 µg/mL (≈ 4.13 µM). Moreover, the “Category (MRS)” value in experiment [1] (MRS medium) is reported as “R”. The Category result in the experiment with S. aureus ATCC25923 (MH medium) is reported as “S”.

Regarding `[H]/N=C(/N)N[C@H]1[C@H](O)[C@@H](O)[C@H](O[C@@H]2O[C@@H](C)[C@](O)(C=O)[C@H]2O[C@@H]2O[C@@H](CO)[C@H](O)[C@@H](O)[C@@H]2NC)[C@@H](N/C(N)=N\[H])[C@@H]1O` [Streptomycin], in experiment [1] (LSM medium), the “Category (LSM)” value is “S”. In addition, the MIC in experiment [1] (setting [2]) came out at 16 µg/mL (≈ 27.5 µM); in experiment [1] (setting [3]) it was 128 µg/mL (≈ 220 µM); in the experiment on S. aureus ATCC25923 (setting [4]), 2 µg/mL (≈ 3.44 µM). Besides, the “Category (MRS)” value in experiment [1] (MRS medium) was “R”.

Consider `CN(C)[C@@H]1C(O)=C(C(N)=O)C(=O)[C@@]2(O)C(O)=C3C(=O)c4c(O)cccc4[C@@](C)(O)[C@H]3C[C@@H]12` [Tetracycline], for which the “Category (LSM)” value in experiment [1] (LSM medium) is given as “S”. The MIC in experiment [1] (setting [2]) was found to be 8 µg/mL (≈ 18 µM); in experiment [1] (setting [3]), 4 µg/mL (≈ 9 µM); in the experiment on S. aureus ATCC25923 (setting [4]) it was 1 µg/mL (≈ 2.25 µM). Also, the “Category (MRS)” value in experiment [1] (MRS medium) is on record as “S”. Moreover, the Category entry with S. aureus ATCC25923 (MH medium) is given as “S”.

On to `CN[C@H](CC(C)C)C(=O)N[C@H]1C(=O)N[C@@H](CC(N)=O)C(=O)N[C@H]2C(=O)N[C@H]3C(=O)N[C@H](C(=O)N[C@H](C(=O)O)c4cc(O)cc(O)c4-c4cc3ccc4O)[C@H](O)c3ccc(c(Cl)c3)Oc3cc2cc(c3O[C@@H]2O[C@H](CO)[C@@H](O)[C@H](O)[C@H]2O[C@H]2C[C@](C)(N)[C@H](O)[C@H](C)O2)Oc2ccc(cc2Cl)[C@H]1O` [Vancomycin], for which, in experiment [1] (LSM medium), the “Category (LSM)” value is reported as “R”. The MIC is 512 µg/mL (≈ 353 µM) in experiment [1] (setting [2]), more than 512 µg/mL in experiment [1] (setting [3]) and 1 µg/mL (≈ 0.69 µM) against S. aureus ATCC25923 (setting [5]). Moreover, the “Susceptibility of the strain” value in experiment [1] (MRS and LSM) is listed as “resistant”. For the same compound, the “Category (MRS)” value in experiment [1] (MRS medium) is recorded as “R”. In the experiment on S. aureus ATCC25923 (MH medium), the Category result is on record as “S”.

For Gentamicin, the “Category (LSM)” value in experiment [1] (LSM medium) is recorded as “S”. The MIC in experiment [1] (LSM medium, anaerobic, 37° C., 24 h) turned out to be 2 µg/mL; in experiment [1] (MRS medium, anaerobic, 37° C., 24 h), 16 µg/mL; against S. aureus ATCC25923 (MH medium, control strain), 0.125 µg/mL. Besides, the “Category (MRS)” value in experiment [1] (MRS medium) is on record as “R”. Besides, in the experiment on S. aureus ATCC25923 (MH medium), the Category entry is listed as “S”.
